Laboratory results from ChEMBL document CHEMBL5380831, “Azolylpyrimidinediols as Novel Structural Scaffolds of DNA-Groove Binders against Intractable Acinetobacter baumannii” (J Med Chem, 2023).
Values after ≈ are worked out from the molar mass of the structure shown.

Assays:
Assay type in all cases: functional
Staphylococcus aureus [1] = assay: Antibacterial activity against Staphylococcus aureus assessed as bacterial growth inhibition incubated for 24 hrs by broth microdilution method
Staphylococcus aureus [2] = assay: Antibacterial activity against methicillin-resistant Staphylococcus aureus assessed as bacterial growth inhibition incubated for 24 hrs by broth microdilution method
Enterococcus faecalis = assay: Antibacterial activity against Enterococcus faecalis assessed as bacterial growth inhibition incubated for 24 hrs by broth microdilution method
Staphylococcus aureus [3] = assay: Antibacterial activity against Staphylococcus aureus ATCC 25923 assessed as bacterial growth inhibition incubated for 24 hrs by broth microdilution method
Staphylococcus aureus [4] = assay: Antibacterial activity against Staphylococcus aureus ATCC 29213 assessed as bacterial growth inhibition incubated for 24 hrs by broth microdilution method
Klebsiella pneumoniae = assay: Antibacterial activity against Klebsiella pneumoniae assessed as bacterial growth inhibition incubated for 24 hrs by broth microdilution method
Escherichia coli [5] = assay: Antibacterial activity against Escherichia coli assessed as bacterial growth inhibition incubated for 24 hrs by broth microdilution method
Escherichia coli [6] = assay: Antibacterial activity against Escherichia coli ATCC 25922 assessed as bacterial growth inhibition incubated for 24 hrs by broth microdilution method
Pseudomonas aeruginosa [7] = assay: Antibacterial activity against Pseudomonas aeruginosa assessed as bacterial growth inhibition incubated for 24 hrs by broth microdilution method
Pseudomonas aeruginosa [8] = assay: Antibacterial activity against Pseudomonas aeruginosa ATCC 27853 assessed as bacterial growth inhibition incubated for 24 hrs by broth microdilution method
Acinetobacter baumannii = assay: Antibacterial activity against Acinetobacter baumannii assessed as bacterial growth inhibition incubated for 24 hrs by broth microdilution method

Structure (SMILES) | MIC (Staphylococcus aureus [1]) | MIC (Staphylococcus aureus [2]) | MIC (Enterococcus faecalis) | MIC (Staphylococcus aureus [3]) | MIC (Staphylococcus aureus [4]) | MIC (Klebsiella pneumoniae) | MIC (Escherichia coli [5]) | MIC (Escherichia coli [6]) | MIC (Pseudomonas aeruginosa [7]) | MIC (Pseudomonas aeruginosa [8]) | MIC (Acinetobacter baumannii)
Clc1ccc2c3ccccc3n(-c3nccc(-n4cncn4)n3)c2c1 | 740 µM (≈ 257 µg/mL) | 740 µM (≈ 257 µg/mL) | 185 µM (≈ 64.2 µg/mL) | 740 µM (≈ 257 µg/mL) | 740 µM (≈ 257 µg/mL) | 740 µM (≈ 257 µg/mL) | 740 µM (≈ 257 µg/mL) | 740 µM (≈ 257 µg/mL) | 3 µM (≈ 1.04 µg/mL) | 740 µM (≈ 257 µg/mL) | 740 µM (≈ 257 µg/mL)
CN(C)c1nccc(-n2cncn2)n1 | 1350 µM (≈ 256 µg/mL) | 1350 µM (≈ 256 µg/mL) | 1350 µM (≈ 256 µg/mL) | 1350 µM (≈ 256 µg/mL) | 1350 µM (≈ 256 µg/mL) | 1350 µM (≈ 256 µg/mL) | 1350 µM (≈ 256 µg/mL) | 673 µM (≈ 128 µg/mL) | 337 µM (≈ 64.1 µg/mL) | 1350 µM (≈ 256 µg/mL) | 1350 µM (≈ 256 µg/mL)
CCc1nccn1-c1nccc(N(CCO)CCO)n1 | 924 µM (≈ 256 µg/mL) | 924 µM (≈ 256 µg/mL) | 924 µM (≈ 256 µg/mL) | 924 µM (≈ 256 µg/mL) | 924 µM (≈ 256 µg/mL) | 1850 µM (≈ 512 µg/mL) | 924 µM (≈ 256 µg/mL) | 924 µM (≈ 256 µg/mL) | 924 µM (≈ 256 µg/mL) | 924 µM (≈ 256 µg/mL) | 924 µM (≈ 256 µg/mL)
CCc1nccn1-c1ccnc(N(CCO)CCO)n1 | 924 µM (≈ 256 µg/mL) | 924 µM (≈ 256 µg/mL) | 924 µM (≈ 256 µg/mL) | 924 µM (≈ 256 µg/mL) | 924 µM (≈ 256 µg/mL) | 1850 µM (≈ 512 µg/mL) | 924 µM (≈ 256 µg/mL) | 924 µM (≈ 256 µg/mL) | 924 µM (≈ 256 µg/mL) | 924 µM (≈ 256 µg/mL) | 924 µM (≈ 256 µg/mL)
Brc1ccc2c3ccccc3n(-c3nccc(-n4cncn4)n3)c2c1 | 5 µM (≈ 1.96 µg/mL) | 656 µM (≈ 257 µg/mL) | 164 µM (≈ 64.2 µg/mL) | 1660 µM (≈ 648 µg/mL) | 656 µM (≈ 257 µg/mL) | 656 µM (≈ 257 µg/mL) | 656 µM (≈ 257 µg/mL) | 656 µM (≈ 257 µg/mL) | 1 µM (≈ 0.391 µg/mL) | 656 µM (≈ 257 µg/mL) | 656 µM (≈ 257 µg/mL)
Cc1ncc([N+](=O)[O-])n1-c1nccc(N(CCO)CCO)n1 | 831 µM (≈ 256 µg/mL) | 831 µM (≈ 256 µg/mL) | 831 µM (≈ 256 µg/mL) | 831 µM (≈ 256 µg/mL) | 831 µM (≈ 256 µg/mL) | 415 µM (≈ 128 µg/mL) | 415 µM (≈ 128 µg/mL) | 1660 µM (≈ 512 µg/mL) | 415 µM (≈ 128 µg/mL) | 415 µM (≈ 128 µg/mL) | 415 µM (≈ 128 µg/mL)
O=S(=O)(c1ccc(F)cc1)N1CCN(c2nccc(-n3cncn3)n2)CC1 | 658 µM (≈ 256 µg/mL) | 658 µM (≈ 256 µg/mL) | 658 µM (≈ 256 µg/mL) | 165 µM (≈ 64.3 µg/mL) | 658 µM (≈ 256 µg/mL) | 658 µM (≈ 256 µg/mL) | 658 µM (≈ 256 µg/mL) | 658 µM (≈ 256 µg/mL) | 329 µM (≈ 128 µg/mL) | 658 µM (≈ 256 µg/mL) | 165 µM (≈ 64.3 µg/mL)
OCCN(CCO)c1ccnc(-n2ccnc2)n1 | 1030 µM (≈ 256 µg/mL) | 1030 µM (≈ 256 µg/mL) | 1030 µM (≈ 256 µg/mL) | 1030 µM (≈ 256 µg/mL) | 2060 µM (≈ 512 µg/mL) | 1030 µM (≈ 256 µg/mL) | 1030 µM (≈ 256 µg/mL) | 2060 µM (≈ 512 µg/mL) | 514 µM (≈ 128 µg/mL) | 1030 µM (≈ 256 µg/mL) | 1030 µM (≈ 256 µg/mL)
CC(=O)Nc1ccc(S(=O)(=O)N2CCN(c3nccc(-n4cncn4)n3)CC2)cc1 | 299 µM (≈ 128 µg/mL) | 598 µM (≈ 256 µg/mL) | 598 µM (≈ 256 µg/mL) | 299 µM (≈ 128 µg/mL) | 598 µM (≈ 256 µg/mL) | 598 µM (≈ 256 µg/mL) | 598 µM (≈ 256 µg/mL) | 598 µM (≈ 256 µg/mL) | 598 µM (≈ 256 µg/mL) | 598 µM (≈ 256 µg/mL) | 598 µM (≈ 256 µg/mL)
O=C(c1ccccc1)N1CCN(c2nccc(-n3cncn3)n2)CC1 | 764 µM (≈ 256 µg/mL) | 764 µM (≈ 256 µg/mL) | 764 µM (≈ 256 µg/mL) | 764 µM (≈ 256 µg/mL) | 764 µM (≈ 256 µg/mL) | 6 µM (≈ 2.01 µg/mL) | 764 µM (≈ 256 µg/mL) | 6 µM (≈ 2.01 µg/mL) | 382 µM (≈ 128 µg/mL) | 764 µM (≈ 256 µg/mL) | 764 µM (≈ 256 µg/mL)
CC(=O)N1CCN(c2nccc(-n3cncn3)n2)CC1 | 937 µM (≈ 256 µg/mL) | 469 µM (≈ 128 µg/mL) | 937 µM (≈ 256 µg/mL) | 937 µM (≈ 256 µg/mL) | 937 µM (≈ 256 µg/mL) | 4 µM (≈ 1.09 µg/mL) | 937 µM (≈ 256 µg/mL) | 4 µM (≈ 1.09 µg/mL) | 469 µM (≈ 128 µg/mL) | 937 µM (≈ 256 µg/mL) | 937 µM (≈ 256 µg/mL)
CCCc1nccn1-c1nccc(N(CCO)CCO)n1 | 879 µM (≈ 256 µg/mL) | 879 µM (≈ 256 µg/mL) | 879 µM (≈ 256 µg/mL) | 879 µM (≈ 256 µg/mL) | 879 µM (≈ 256 µg/mL) | 879 µM (≈ 256 µg/mL) | 879 µM (≈ 256 µg/mL) | 879 µM (≈ 256 µg/mL) | 879 µM (≈ 256 µg/mL) | 879 µM (≈ 256 µg/mL) | 879 µM (≈ 256 µg/mL)
O=C(C(Cl)Cl)N1CCN(c2nccc(-n3cncn3)n2)CC1 | 705 µM (≈ 241 µg/mL) | 705 µM (≈ 241 µg/mL) | 705 µM (≈ 241 µg/mL) | 705 µM (≈ 241 µg/mL) | 705 µM (≈ 241 µg/mL) | 353 µM (≈ 121 µg/mL) | 705 µM (≈ 241 µg/mL) | 353 µM (≈ 121 µg/mL) | 88 µM (≈ 30.1 µg/mL) | 705 µM (≈ 241 µg/mL) | 705 µM (≈ 241 µg/mL)
O=C(CCl)N1CCN(c2nccc(-n3cncn3)n2)CC1 | 417 µM (≈ 128 µg/mL) | 104 µM (≈ 32 µg/mL) | 417 µM (≈ 128 µg/mL) | 208 µM (≈ 64 µg/mL) | 104 µM (≈ 32 µg/mL) | 104 µM (≈ 32 µg/mL) | 208 µM (≈ 64 µg/mL) | 104 µM (≈ 32 µg/mL) | 104 µM (≈ 32 µg/mL) | 208 µM (≈ 64 µg/mL) | 208 µM (≈ 64 µg/mL)
O=C(CCCCl)N1CCN(c2nccc(-n3cncn3)n2)CC1 | 764 µM (≈ 257 µg/mL) | 382 µM (≈ 128 µg/mL) | 382 µM (≈ 128 µg/mL) | 382 µM (≈ 128 µg/mL) | 764 µM (≈ 257 µg/mL) | 382 µM (≈ 128 µg/mL) | 382 µM (≈ 128 µg/mL) | 382 µM (≈ 128 µg/mL) | 764 µM (≈ 257 µg/mL) | 382 µM (≈ 128 µg/mL) | 382 µM (≈ 128 µg/mL)
CCN(CC)c1nccc(-n2cncn2)n1 | 1170 µM (≈ 256 µg/mL) | 1170 µM (≈ 256 µg/mL) | 587 µM (≈ 128 µg/mL) | 587 µM (≈ 128 µg/mL) | 587 µM (≈ 128 µg/mL) | 1170 µM (≈ 256 µg/mL) | 587 µM (≈ 128 µg/mL) | 587 µM (≈ 128 µg/mL) | 1170 µM (≈ 256 µg/mL) | 587 µM (≈ 128 µg/mL) | 1170 µM (≈ 256 µg/mL)
CC(C)c1nccn1-c1nccc(N(CCO)CCO)n1 | 879 µM (≈ 256 µg/mL) | 1760 µM (≈ 512 µg/mL) | 1790 µM (≈ 521 µg/mL) | 440 µM (≈ 128 µg/mL) | 879 µM (≈ 256 µg/mL) | 879 µM (≈ 256 µg/mL) | 879 µM (≈ 256 µg/mL) | 1760 µM (≈ 512 µg/mL) | 440 µM (≈ 128 µg/mL) | 879 µM (≈ 256 µg/mL) | 440 µM (≈ 128 µg/mL)
OCCN(CCO)c1nccc(-n2cnnn2)n1 | 1020 µM (≈ 256 µg/mL) | 2040 µM (≈ 512 µg/mL) | 1020 µM (≈ 256 µg/mL) | 1020 µM (≈ 256 µg/mL) | 1020 µM (≈ 256 µg/mL) | 1020 µM (≈ 256 µg/mL) | 1020 µM (≈ 256 µg/mL) | 1020 µM (≈ 256 µg/mL) | – | 1020 µM (≈ 256 µg/mL) | 510 µM (≈ 128 µg/mL)
Cc1ncc([N+](=O)[O-])n1-c1ccnc(N(CCO)CCO)n1 | 415 µM (≈ 128 µg/mL) | 831 µM (≈ 256 µg/mL) | 406 µM (≈ 125 µg/mL) | 831 µM (≈ 256 µg/mL) | – | 415 µM (≈ 128 µg/mL) | 415 µM (≈ 128 µg/mL) | 831 µM (≈ 256 µg/mL) | 415 µM (≈ 128 µg/mL) | 1660 µM (≈ 512 µg/mL) | 415 µM (≈ 128 µg/mL)
O=[N+]([O-])c1cn(-c2ccnc(N(CCO)CCO)n2)cn1 | 435 µM (≈ 128 µg/mL) | 870 µM (≈ 256 µg/mL) | 870 µM (≈ 256 µg/mL) | 435 µM (≈ 128 µg/mL) | 870 µM (≈ 256 µg/mL) | 870 µM (≈ 256 µg/mL) | 435 µM (≈ 128 µg/mL) | 870 µM (≈ 256 µg/mL) | 435 µM (≈ 128 µg/mL) | 435 µM (≈ 128 µg/mL) | –
